Experiment: Moisture-sorption isotherm (VTI SGA-100 Symmetric Vapor Analyzer)
Assay type: physicochemical
Details: range from about 25% RH to about 75% RH at 25° C.; FIG. 8
Protocol: 10. Moisture-sorption isotherms were collected in a VTI SGA-100 Symmetric Vapor Analyzer using approximately 10 mg of sample. The sample was dried at 60° C. until the loss rate of 0.0005 wt %/min was obtained for 10 minutes. The sample was tested at 25° C. and 3 or 4, 5, 15, 25, 35, 45, 50, 65, 75, 85, and 95% RH. Equilibration at each RH was reached when the rate of 0.0003 wt %/min for 35 minutes was achieved or a maximum of 600 minutes.

Structure (SMILES): O=C(C(=O)N1CCN(C(=O)c2ccccc2)CC1)c1c[nH]c2c(-n3ccnn3)ncc(F)c12
- weight gain / weight water uptake (moisture-sorption isotherm): about 0.1%

From patent publication US7601715B2, “Process for preparing triazole substituted azaindoleoxoacetic piperazine derivatives and novel salt forms produced therein” (Bristol-Myers Squibb Company, priority 2005, dated 2009)
